Measurements: article PMC6464118 (European journal of medicinal chemistry, 2019)

test system: bevirimat-resistant HIV viruses NL4-3-V370A; test: Activity against bevirimat-resistant HIV virus NL4-3-V370A; format: cell-based; settings: not given

Row | SMILES | activity against bevirimat-resistant HIV viruses NL4-3-V370A
1 | CC(=O)O[C@H]1[C@@H](OC(C)=O)[C@@]2(C)[C@@H]3CC[C@H]4C(C)(C)[C@@H](OC(=O)CC(C)(C)C(=O)O)CC[C@@]45C[C@@]35CC[C@@]23CO[C@@]2(C(C)(C)O)CC[C@](C)(O2)[C@@H]13 [Compound 13g, (20S, 24S)-15β,16β-Diacetoxy-18,24;20,24-diepoxy-9,19-cyclolanostane-3β, 25-diol 3-O-3′,3′-dimethylsuccinate] | no significant effects

test system: HIV-1 NL4-3 Nanoluc-sec virus; test: not given; format: cell-based; settings: CC50 (MT4) / EC50 (NL4-3)

Row | SMILES | TI: CC50/EC50
2 | CC(=O)O[C@H]1[C@H](O)[C@H]([C@]2(C)CC[C@@H](C(C)(C)O)O2)[C@@]2(C)CC[C@@]34C[C@@]35CC[C@H](O[C@@H]3OC[C@@H](O)[C@H](O)[C@H]3O)C(C)(C)[C@@H]5CC[C@H]4[C@]12C [Compound 4, beesioside M] | > 8.2
3 | CC(=O)O[C@H]1[C@@H](OC(C)=O)[C@@]2(C)[C@@H]3CC[C@H]4C(C)(C)[C@@H](OC(=O)CCC(=O)O)CC[C@@]45C[C@@]35CC[C@@]23CO[C@@]2(C(C)(C)O)CC[C@](C)(O2)[C@@H]13 [Compound 13e, (20S,24S)-15β,16β-Diacetoxy-18,24;20,24-diepoxy-9,19-cyclolanostane-3β,25-diol 3-O-succinate] | > 5.2
4 | CC1(C)[C@@H](O[C@@H]2OC[C@@H](O)[C@H](O)[C@H]2O)CC[C@]23C[C@]24CC[C@]25CO[C@@]6(C(C)(C)O)CC[C@](C)(O6)[C@H]2[C@@H](O)[C@@H](O)[C@@]5(C)[C@@H]4CC[C@@H]13 [Compound 1a, (20S,24S)-18,24;20,24-Diepoxy-9,19-cyclolanostane-3β, 15β, 16β,25-tetraol 3-O-β-D-xylopyrano-side] | > 5.2
5 | CC(=O)O[C@H]1[C@@H](OC(C)=O)[C@@]2(C)[C@@H]3CC[C@H]4C(C)(C)[C@@H](OC(=O)CCC(C)(C)C(=O)O)CC[C@@]45C[C@@]35CC[C@@]23CO[C@@]2(C(C)(C)O)CC[C@](C)(O2)[C@@H]13 [Compound 13j, (20S, 24S)-15β,16β-Diacetoxy-18,24;20,24-diepoxy-9,19-cyclolanostane-3β, 25-diol 3-O-4',4'-dimethylglutarate] | > 104
6 | CC(=O)O[C@H]1[C@@H](O)[C@@]2(C)[C@@H]3CC[C@H]4C(C)(C)[C@@H](O[C@@H]5OC[C@@H](O)[C@H](O)[C@H]5O)CC[C@@]45C[C@@]35CC[C@@]23CO[C@@]2(C(C)(C)O)CC[C@](C)(O2)[C@@H]13 [Compound 2, beesioside K] | > 8.6
7 | CC(=O)O[C@H]1[C@@H](OC(C)=O)[C@@]2(C)[C@@H]3CC[C@H]4C(C)(C)[C@@H](OC(=O)CC(C)C(=O)O)CC[C@@]45C[C@@]35CC[C@@]23CO[C@@]2(C(C)(C)O)CC[C@](C)(O2)[C@@H]13 (stereo partly drawn) [Compound 13f, (RS-3′-20S, 24S)-15β,16β-Diacetoxy-18,24;20,24-diepoxy-9,19-cyclolanostane-3β, 25-diol 3-O-3′-methylsuccinate] | > 18.0
8 | CC(=O)O[C@H]1[C@@H](OC(C)=O)[C@@]2(C)[C@@H]3CC[C@H]4C(C)(C)[C@@H](OC(=O)COCC(=O)O)CC[C@@]45C[C@@]35CC[C@@]23CO[C@@]2(C(C)(C)O)CC[C@](C)(O2)[C@@H]13 [Compound 13m, (20S,24S)-15β, 16β-Diacetoxy-18,24;20,24-diepoxy-9,19-cyclolanostane-3β,25-diol 3-O-diglycolate] | > 41.7
9 | CC(=O)O[C@H]1[C@@H](OC(C)=O)[C@@]2(C)[C@@H]3CC[C@H]4C(C)(C)[C@@H](OC(=O)CC5(CC(=O)O)CCCC5)CC[C@@]45C[C@@]35CC[C@@]23CO[C@@]2(C(C)(C)O)CC[C@](C)(O2)[C@@H]13 [Compound 13l, (20S,24S)-15β,16β-Diacetoxy-18,24;20,24-diepoxy-9,19-cyclolanostane-3β,25-diol 3-O-3′,3′-tetramethyleneglutarate] | > 12.6
10 | CC(=O)O[C@H]1[C@@H](OC(C)=O)[C@@]2(C)[C@@H]3CC[C@H]4C(C)(C)[C@@H](OC(C)=O)CC[C@@]45C[C@@]35CC[C@@]23CO[C@@]2(C(C)(C)O)CC[C@](C)(O2)[C@@H]13 [Compound 13a, (20S, 24S)-15β, 16β-Diacetoxy-18,24;20,24-diepoxy-9,19-cyclolanostane-25-hydroxy-3β-yl acetate] | > 16.4
11 | CC(=O)O[C@H]1[C@@H](OC(C)=O)[C@@]2(C)[C@@H]3CC[C@H]4C(C)(C)[C@@H](O[C@@H]5OC[C@@H](O)[C@H](O)[C@H]5O)CC[C@@]45C[C@@]35CC[C@@]23CO[C@@]2(C(C)(C)O)CC[C@](C)(O2)[C@@H]13 [Compound 1, beesioside I] | > 17.2

same assay, conditions: HIV-1 NL4-3 replication in MT4 cells

Row | SMILES | anti-HIV activity in words
12 | CC1(C)[C@@H](O)CC[C@]23C[C@]24CC[C@]25CO[C@@]6(C(C)(C)O)CC[C@](C)(O6)[C@H]2[C@@H](O)[C@@H](O)[C@@]5(C)[C@@H]4CC[C@@H]13 [Compound 13d, (20S, 24S)-18,24;20,24-Diepoxy-9,19-cyclolanostane-3β, 15β, 16β, 25-tetraol] | inactive
13 | CC(=O)O[C@H]1[C@@H](OC(C)=O)[C@@]2(C)[C@@H]3CC[C@H]4C(C)(C)[C@@H](O[C@@H]5OC[C@@H](O)[C@H](O)[C@H]5O)CC[C@@]45C[C@@]35CC[C@@]23CO[C@@](C)(CCC(=O)C(C)(C)O)[C@@H]13 [Compound 12, soulieoside P] | inactive
14 | CC1(C)[C@@H](O[C@@H]2OC[C@@H](O)[C@H](O)[C@H]2O)CC[C@]23C[C@]24CC[C@]25CO[C@@]6(C(C)(C)O)CC[C@](C)(O6)[C@H]2[C@@H](O)[C@@H](O)[C@@]5(C)[C@@H]4CC[C@@H]13 [Compound 1a, (20S,24S)-18,24;20,24-Diepoxy-9,19-cyclolanostane-3β, 15β, 16β,25-tetraol 3-O-β-D-xylopyrano-side] | less potent
15 | CC(=O)O[C@H]1[C@@H]2O[C@@]3(C(C)(C)O)CC[C@](C)(O3)[C@@H]2[C@@]2(CO)CC[C@@]34C[C@@]35CC[C@H](O[C@@H]3OC[C@@H](O)[C@H](O)[C@H]3O)C(C)(C)[C@@H]5CC[C@H]4[C@]12C [Compound 9, (20S,24S)-15α-acetoxy-16β,24;20,24-diepoxy-3β-(β-D-xylopyranosyloxy)-9,19-cyclolanostane-18,25-diol] | inactive
16 | CC(=O)O[C@H]1[C@H](O)[C@@]2(C)[C@@H]3CC[C@H]4C(C)(C)[C@@H](O[C@@H]5OC[C@@H](O)[C@H](O)[C@H]5O)CC[C@@]45C[C@@]35CC[C@@]23CO[C@@](C)(CCC(=O)C(C)(C)O)[C@@H]13 [Compound 11, soulieoside O] | inactive
17 | CC(=O)O[C@H]1[C@@H](OC(C)=O)[C@@]2(C)[C@@H]3CC[C@H]4C(C)(C)[C@@H](O)CC[C@@]45C[C@@]35CC[C@@]23CO[C@@]2(C(C)(C)O)CC[C@](C)(O2)[C@@H]13 [Compound 13, (20S,24S)-15β, 16β-Diacetoxy-18,24;20,24-diepoxy-9,19-cyclolanostane-3β,25-diol] | inactive
18 | CC(C)(O)[C@@H]1CC[C@@](C)([C@H]2[C@@H](O)[C@H](O)[C@@]3(C)[C@@H]4[C@@H](O)C[C@H]5C(C)(C)[C@@H](O[C@@H]6OC[C@@H](O)[C@H](O)[C@H]6O)CC[C@@]56C[C@@]46CC[C@]23C)O1 [Compound 5, soulieoside N] | inactive

same assay, conditions: relative to compound 1

Row | SMILES | fold more potent than 1 (anti-HIV activity)
19 | CC(=O)O[C@H]1[C@@H](OC(C)=O)[C@@]2(C)[C@@H]3CC[C@H]4C(C)(C)[C@@H](OC(=O)CC(C)(C)C(=O)O)CC[C@@]45C[C@@]35CC[C@@]23CO[C@@]2(C(C)(C)O)CC[C@](C)(O2)[C@@H]13 [Compound 13g, (20S, 24S)-15β,16β-Diacetoxy-18,24;20,24-diepoxy-9,19-cyclolanostane-3β, 25-diol 3-O-3′,3′-dimethylsuccinate] | approximately 100 fold
